Values of other authors in patent EP3003384B1 (Lamda Laboratories S.A., priority 2014, dated 2015).
Counter-ions that a name gives are not always drawn.

Conditions: at room temperature

SMILES: CNCC[C@@H](Oc1ccccc1C)c1ccccc1 [atomoxetine hydrochloride]
- soluble in water: 27.8 mg/mL
